Laboratory results from US20090088432A1, “Thiazolinones and Oxazolinones and their Use as Ptp1b Inhibitors” (priority 2005, published 2009).

molecular target: T1, Recombinant human Protein-tyrosine phosphatase1B (PTP1B) (Homo sapiens, UniProt P18031); assay: PTP1B enzyme inhibition assay (pNpp substrate); assay type: biochemical; conditions: inhibition of recombinant human PTP1B, pNpp 5 mM, 30 mins at 25° C; inhibitor concentration not given
T1 construct: Recombinant human Protein-tyrosine phosphatase1B (PTP1B) (amino acid 1-322 Biomol, USA); purchased Biomol, USA
T1 sequence (P18031 1-322): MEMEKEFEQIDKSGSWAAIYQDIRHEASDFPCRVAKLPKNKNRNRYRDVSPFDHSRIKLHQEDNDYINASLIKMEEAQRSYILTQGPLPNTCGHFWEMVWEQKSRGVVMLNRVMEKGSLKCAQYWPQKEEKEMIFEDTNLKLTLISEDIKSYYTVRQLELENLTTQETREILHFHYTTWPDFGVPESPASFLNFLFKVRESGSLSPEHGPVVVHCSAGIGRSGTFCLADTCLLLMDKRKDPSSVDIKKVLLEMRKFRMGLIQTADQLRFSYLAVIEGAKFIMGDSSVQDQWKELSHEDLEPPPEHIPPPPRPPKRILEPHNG
Protocol: Protein tyrosine phosphatase 1B (PTP1B) is an intracellular enzyme which functions by removing the phosphate groups from phosphorylated tyrosine residues of cellular proteins. PTP1B has been implicated as a negative regulator of insulin action and therefore is of therapeutic interest. The ability of the test compounds to inhibit the activity of PTP1B is determined using an enzyme inhibition assay.
The assay is performed using two independent substrates of PTP1B namely, p-nitrophenyl phosphate (pNpp) and the phosphorylated Epidermal growth factor receptor peptide (EGFR).
In the assay performed with pNpp, the action of PTP1B results in the release of p-nitrophenol, which is yellow in colour and can be measured at 410 nm. In the case of the assay using EGFR, action of PTP1B results in the release of free phosphate group. This is trapped using a reagent containing ammonium molybdate and malachite green resulting in a colored complex whose absorbance can be measured at 620 nm.
1× Assay buffer 50 mM HEPES (pH 7.4) • 1 mM EDTA • 1 mM DTT • 0.05% Igepal® CA-630
Dilute recombinant Human PTP1B 1:150 in 1× Assay buffer for 10× stock,
Prepare 10× stock of pNpp (50 mM) in 1× Assay buffer
Prepare 100× stock in 100% DMSO, dilute 1:10 with 1× Assay buffer to get 10× stock in 10% DMSO.
PTP1B inhibition assay was performed using recombinant human PTP1B. PTP1B (0.016 μg/well) was incubated in a buffer containing 50 mM HEPES, 1 mM DTT, 1 mM EDTA and 0.05% Igepal® CA-630 with or without inhibitor (10× stock, final DMSO concentration is 1%) for 30 mins at 25° C. This was followed by addition of p-Nitrophenyl phosphate (pNpp) substrate (5 mM). The final volume of the reaction mixture is 50 μL and experiment was done in 96 well half area plate. The incubation was continued for 30 mins at 25° C. The conversion of pNpp to p-Nitrophenol (pNp) was measured at 410 nm in Spectramaxplus Spectrophotometer (Molecular Devices, USA).

Row | Activity Score | Structure (SMILES)
1 | (+++) (+++ = >50% inhibition) | O=C(O)Cc1ccc(NC2=NC(=O)C(=Cc3ccc(-n4cnnn4)cc3)S2)cc1 [Compound 45, {4-[4-Oxo-5-(4-tetrazol-1-yl-benzylidene)-4,5-dihydro-thiazol-2-ylamino]-phenyl}-acetic acid]
2 | (+++) (+++ = >50% inhibition) | O=C(O)Cn1ccc2cc(NC3=NC(=O)C(=Cc4cc5ccccc5cc4OCc4ccccc4)S3)ccc21 [Compound 47, {5-[5-(3-Benzyloxy-naphthalen-2-ylmethylene)-4-oxo-4,5-dihydro-thiazol-2-ylamino]-indol-1-yl}-acetic acid]
3 | (+++) (+++ = >50% inhibition) | CCC(C(=O)O)c1ccc(NC2=NC(=O)C(=Cc3cc4ccccc4cc3OCc3ccccc3)S2)cc1 (centres unmarked) [Compound 48, 2-{4-[5-(3-Benzyloxy-naphthalen-2-ylmethylene)-4-oxo-4,5-dihydro-thiazol-2-ylamino]-phenyl}-butyric acid]
4 | (++) (++ = 20-50% inhibition) | O=C(O)CCc1ccc(NC2=NC(=O)C(=Cc3cc4ccccc4cc3OCc3ccccc3)S2)cc1 [Compound 49, 3-{4-[5-(3-Benzyloxy-naphthalen-2-ylmethylene)-4-oxo-4,5-dihydro-thiazol-2-ylamino]-phenyl}-propionic acid]
5 | (+++) (+++ = >50% inhibition) | O=C(O)Cc1ccc(NC2=NC(=O)C(=Cc3cccc(N4C(=O)c5ccccc5C4=O)c3)S2)cc1 [Compound 50, (4-{5-[3-(1,3-Dioxo-1,3-dihydro-isoindol-2-yl)-benzylidene]-4-oxo-4,5-dihydro-thiazol-2-ylamino}-phenyl)-acetic acid]
6 | (+++) (+++ = >50% inhibition) | O=C(O)Cc1ccc(NC2=NC(=O)C(=Cc3cccc(-n4cccc4)c3)S2)cc1 [Compound 51, {4-[4-Oxo-5-(3-pyrrol-1-yl-benzylidene)-4,5-dihydro-thiazol-2-ylamino]-phenyl}-acetic acid]
7 | (++) (++ = 20-50% inhibition) | CC(C(=O)O)c1ccc(NC2=NC(=O)C(=Cc3ccc4ccccc4c3)S2)cc1 (centres unmarked) [Compound 53, 2-[4-(5-Naphthalen-2-yl-ethylene-4-oxo-4,5-dihydro-thiazol-2-ylamino)-phenyl]-propionic acid]
8 | (+++) (+++ = >50% inhibition) | CC(C(=O)O)c1ccc(NC2=NC(=O)C(=Cc3ccc(-c4ccccc4)cc3)S2)cc1 (centres unmarked) [Compound 54, 2-[4-(5-Biphenyl-4-ylmethylene-4-oxo-4,5-dihydro-thiazol-2-ylamino)-phenyl]-propionic acid]
9 | (++) (++ = 20-50% inhibition) | O=C(O)CC(C(=O)O)c1ccc(NC2=NC(=O)C(=Cc3ccc(-c4ccccc4)cc3)S2)cc1 (centres unmarked) [Compound 55, 2-[4-(5-Biphenyl-4-ylmethylene-4-oxo-4,5-dihydro-thiazol-2-ylamino)-phenyl]-succinic acid]
10 | (+) (+ = 10-20% inhibition) | COc1cc(C=C2SC(Nc3ccc(CC(=O)O)cc3)=NC2=O)cc(OC)c1O [Compound 56, {4-[c-(4-hydroxy-3,5-dimethoxy-benzylidene)-4-oxo-4,5-dihydro-thiazol-2-ylamino]-phenyl}-acetic acid]
11 | (+++) (+++ = >50% inhibition) | COc1cc(C=C2SC(Nc3ccc(CC(=O)O)cc3)=NC2=O)cc(OC)c1OC [Compound 59, {4-[4-Oxo-5-(3,4,5-trimethoxy-benzylidene)-4,5-dihydro-thiazol-2-ylamino]-phenyl}-acetic acid]
12 | (++) (++ = 20-50% inhibition) | O=C(O)Cc1ccc(NC2=NC(=O)C(=Cc3cccn3-c3ccc(Br)cc3)S2)cc1 [Compound 60, (4-{5-[1-(4-Bromo-phenyl)-1H-pyrrol-2-ylmethylene]-4-oxo-4,5-dihydro-thiazol-2-ylamino}-phenyl)-acetic acid]
13 | (+) (+ = 10-20% inhibition) | CC(=C1SC(Nc2ccc(CC(=O)O)cc2)=NC1=O)c1cccc(-n2cccc2)c1 [Compound 61, (4-{4-Oxo-5-[1-(3-pyrrol-1-yl-phenyl)-ethylidene]-4,5-dihydro-thiazol-2-ylamino}-phenyl)-acetic acid]
14 | (+++) (+++ = >50% inhibition) | O=C(O)Cc1ccc(NC2=NC(=O)C(=Cc3cccn3-c3ccccc3)S2)cc1 [Compound 62, {4-[4-Oxo-5-(1-phenyl-1H-pyrrol-2-ylmethylene)-4,5-dihydro-thiazol-2-ylamino]-phenyl}-acetic acid]
15 | (++) (++ = 20-50% inhibition) | O=C1N=C(Nc2ccc(CC(C(=O)O)C(=O)O)cc2)SC1=Cc1ccc(-c2ccccc2)cc1 [Compound 67, 2-[4-(5-Biphenyl-4-ylmethylene-4-oxo-4,5-dihydro-thiazol-2-ylamino)-benzyl]-malonic acid]
16 | (+++) (+++ = >50% inhibition) | O=C(O)Cc1ccc(NC2=NC(=O)C(=Cc3coc4ccccc4c3=O)S2)cc1 [Compound 71, {4-[4-oxo-5-(4-oxo-4H-chromen-3-ylmethylene)-4,5-dihydro-thiazol-2-ylamino]-phenyl}-acetic acid]
17 | (+) (+ = 10-20% inhibition) | O=C(O)Cc1ccc(NC2=NC(=O)C(=Cc3ccc(C(F)(F)F)cc3)S2)cc1 [Compound 72, {4-[4-Oxo-5-(4-trifluoro methyl-benzylidene)-4,5-dihydro-thiazol-2-ylamino]-phenyl}-acetic acid]
18 | (+++) (+++ = >50% inhibition) | CCC(C(=O)[O-])c1ccc(NC2=NC(=O)C(=Cc3cc4ccccc4cc3OCc3ccccc3)S2)cc1.[Na+] [Compound 84, 2-{4-[L-(3-Benzyloxy-naphthalen-2-ylmethylene)-4-oxo-4,5-dihydro-thiazol-2-ylamino]-phenyl}-sodium butyrate]
19 | (+++) (+++ = >50% inhibition) | O=C(O)Cc1ccc(NC2=NC(=O)C(=Cc3cc4ccccc4cc3OCc3ccc(F)cc3)S2)cc1 [Compound 85, (4-{5-[3-(4-Fluoro-benzyloxy)-naphthalen-2-ylmethylene]-4-oxo-4,5-dihydro-thiazol-2-ylamino}-phenyl)-acetic acid]
20 | (+) (+ = 10-20% inhibition) | O=C(O)Cc1ccc(NC2=NC(=O)C(=Cc3cccc(-n4cncn4)c3)S2)cc1 [Compound 87, {4-[4-Oxo-5-(3-[1,2,4]triazol-1-yl-benzylidene)-4,5-dihydro-thiazol-2-ylamino]-phenyl}-acetic acid]
21 | (+++) (+++ = >50% inhibition) | O=C(O)Cc1ccc(NC2=NC(=O)C(=Cc3cccc(-n4cnc5ccccc54)c3)S2)cc1 [Compound 88, {4-[5-(3-Benzoimidazol-1-yl-benzylidene)-4-oxo-4,5-dihydro-thiazol-2-ylamino]-phenyl}-acetic acid]
22 | (+) (+ = 10-20% inhibition) | O=C([O-])CCc1ccc(NC2=NC(=O)C(=Cc3ccc4ccccc4c3)S2)cc1.[Na+] [Compound 89, 3-[4-(5-Naphthalen-2-ylmethylene-4-oxo-4,5-dihydro-thiazol-2-ylamino)-phenyl]-sodium propionate]
23 | (+++) (+++ = >50% inhibition) | O=C(O)Cc1ccc(NC2=NC(=O)C(=Cc3cccc(N4CCN(c5ccccn5)CC4)c3)S2)cc1 [Compound 90, (4-{4-Oxo-5-[3-(4-pyridin-2-yl-piperazin-1-yl)-benzylidene]-4,5-dihydro-thiazol-2-ylamino}-phenyl)-acetic acid]
24 | (++) (++ = 20-50% inhibition) | O=C(O)Cc1ccc(NC2=NC(=O)C(=Cc3cccc(-n4cccn4)c3)S2)cc1 [Compound 91, {4-[4-Oxo-5-(3-pyrazol-1-yl-benzylidene)-4,5-dihydro-thiazol-2-ylamino]-phenyl}-acetic acid]
25 | (+) (+ = 10-20% inhibition) | O=C(O)Cc1ccc(NC2=NC(=O)C(=Cc3ccc(-c4ccccc4)cc3)S2)cc1 [Compound 94, [4-(5-Biplenyl-4-ylmethylene-4-oxo-4,5-dihydro-thiazol-2-ylamino)-phenyl]-acetic acid]
26 | (+++) (+++ = >50% inhibition) | O=C([O-])CCc1ccc(NC2=NC(=O)C(=Cc3cc4ccccc4cc3OCc3ccccc3)S2)cc1.[Na+] [Compound 96, 3-{4-[5-(3-Benzyloxy-naphthalen-2-ylmethylene)-4-oxo-4,5-dihydro-thiazol-2-lamino]-phenyl}-sodium propionate]
